# Experimental data reported in patent US20230017266A1, “Cyclooxygenase-2 Inhibition for the Treatment of SAA-high Asthma” (THE USA, AS REPRESENTED BY THE SECRETARY, DEPT. OF HEALTH …, priority 2019, published 2023).
# How the values were obtained:
# miR-155-5p = miR-155-5p levels in CD14+ monocytes cultured with HDL+SAA1 (qRT-PCR); assay type: cell-based, human; details: 24 h
# Description: Quantitative RT-PCR (qRT-PCR). Total RNA was purified using the Direct-Zol™ RNA MiniPrep kit and total RNA (100 ng) was reverse transcribed into cDNA using the High-Capacity cDNA Reverse Transcription Kit (Applied Biosystems, Foster City, Calif.). Polymerase chain reactions (PCR) were performed on duplicate cDNA samples using TaqMan Universal PCR Master Mix, FAM-MGB dye-labeled Taqman® PTGS2 probe (Assay ID Hs00153133_m1, catalog #4331182), and a 7900 Real Time PCR System running Sequence Detector version 2.4 software, all from Applied Biosystems (Foster City, Calif.). […] For quantification of miR-155-5p expression, miRNA present in total RNA (10 ng) was converted to cDNA using the microRNA cDNA Reverse Transcription kit (Applied Biosystems, Foster City, Calif.). Polymerase chain reaction (PCR) was performed on duplicate cDNA samples using TaqMan Universal PCR Master Mix, Taqman® MicroRNA Assay for has-miR-155-5p (Assay ID #002623, catalog #4427975), and a 7900HT Fast Real-Time PCR System running Sequence Detector version 2.4 software (ThermoFisher Scientific, Waltham, Mass.). miR-155-5p expression was quantified relative to expression of U6 snRNA using the control sample as calibrator to calculate the difference in Ct values (ΔΔCt) and presented as relative mRNA expression.
# CD14^+ monocytes = assay: HDL+SAA1-induced cytokine secretion by ex vivo CD14+ monocytes (ELISA); assay type: cell-based, human; details: for HDL+SAA1-mediated increases in cytokine secretion: 24 h
# Description: Isolation of Peripheral Blood Monocytes. Peripheral blood monocytes were isolated using a two-step process. Peripheral blood was diluted with PBS at a 1:1 ratio, slowly overlaid onto 30 ml of Lymphoprep™ (catalog #07811, StemCell Technologies, Vancouver Canada) in a 50 ml conical tube, and centrifuged at 400×g for 25 min without braking. The peripheral blood mononuclear cell (PBMC) layer was carefully transferred to another 50 ml conical tube, washed with PBS, followed by two washes with FACS buffer (0.5 mM EDTA, 1% BSA, and 1% mouse serum in PBS). Monocytes subsets were identified and sorted by flow cytometry using the following antibodies: PE mouse anti-human CD45 clone HI30 (catalog #555483), BV421 mouse anti-human CD14 clone MφP9 (catalog #563743), and FITC mouse anti-human CD16 clone B73.1 (catalog #561308), and a FACS ARIA Fusion sorter equipped with 355, 407, 488, 532 and 640 nm LASER lines using FACS DIVA 8.0 software (all from BD Biosciences, San Jose, Calif.). The gating strategy identified a population of debris-free, single, live, ^SSCmoderate/high, CD45^+ cells from which CD14^+/CD16^− (classical), CD14^+/CD16^+ (intermediate), CD14^dim/CD16^+ (non-classical), and CD14^+ (classical and intermediate) cells were sorted and utilized for experiments, as indicated (Supplemental FIG. 4).
# HDL+SAA1 Stimulation of Peripheral Blood Monocytes Subsets. […] As previously described, normal HDL was isolated from plasma obtained from healthy subjects by sequential KBr differential gradient ultracentrifugation at 330,000 g and extensive dialysis with 50 mM HEPES, 50 mM NaCL, 5 mM MgCl2 and 2 mM CaCl2, pH 7.0, at 4° C. Normal HDL was complexed with recombinant human serum amyloid A-1 at a 2:1 ratio by mixing and incubated at RT overnight to generate HDL+SAA1, which was filtered using a 100-kDa exclusion filter (Amicon Ultra Centrifuge Filters, Millipore, Darmstadt, Germany) to remove any uncomplexed SAA1. Normal HDL was also complexed with the amount of lipopolysaccharide (catalog # L4391, E. coli 0111:B4, y-irradiated, MilliporeSigma, St. Louis, Mo.) present in recombinant human SAA1. Additionally, classical CD14^+ monocytes were treated with the P2X7R antagonist, A438079, the IKK inhibitor, BAY-11-7082, the IKKβ (IKK-2) inhibitor, TPCA-1, or the selective COX-2 inhibitor, celexocib, all from MilliporeSigma(St. Louis, Mo.). Cells were also treated with the FPR2 antagonist, WRW4, or diclofenac from Tocris (Minneapolis, Minn.). The amount of IL-1β, IL-6, TNF-α and IL-10 secreted into cell culture supernatants was quantified using human DuoSet ELISA kits (R&D Systems) and data were acquired using a SpectraMax M2 spectrophotometer (Molecular Devices, San Jose, Calif.). Western blotting, as previously described^43, was performed using antibodies directed against COX-1 (catalog #160110) and COX-2 (catalog #160112), both from Cayman Chemical (Ann Arbor, Mich.). Equivalency of protein loading was established using an antibody directed against GAPDH (catalog #MAB5718) from R&D Systems (Minneapolis, Minn.). Western blots images were captured using an iBright FL1000 Western Blot Imaging System (ThermoFisher Scientific, Waltham, Mass.) and quantified using NIH ImageJ software (imagej.nih.gov). […]
# [1] = A438079 10 μM, pre-treated 1 h, HDL+SAA1 24 h
compound,measurement,setting,value
Clc1cccc(-c2nnnn2Cc2cccnc2)c1Cl [A438079],HDL+SAA1-mediated increases in miR-155-5p,miR-155-5p; A438079 10 μM,significantly reduced
same,HDL+SAA1-mediated secretion of IL-1β,CD14^+ monocytes; [1],significantly reduced
same,HDL+SAA1-mediated secretion of IL-6,CD14^+ monocytes; [1],significantly reduced
same,HDL+SAA1-mediated secretion of IL-10,CD14^+ monocytes; [1],significantly reduced
same,HDL+SAA1-mediated secretion of TNF-α,CD14^+ monocytes; [1],significantly reduced
Cc1ccc(S(=O)(=O)/C=C/C#N)cc1 [BAY 11-7082],HDL+SAA1-mediated increases in miR-155-5p,miR-155-5p; BAY-11-7082 10 μM,attenuated
same,HDL+SAA1-mediated increases in cytokine secretion,CD14^+ monocytes; BAY-11-7082 10 μM,prevented
NC(=O)Nc1sc(-c2ccc(F)cc2)cc1C(N)=O [TPCA1],HDL+SAA1-mediated increases in miR-155-5p,miR-155-5p; TPCA-1 1 μM,attenuated
same,HDL+SAA1-mediated increases in cytokine secretion,CD14^+ monocytes; TPCA-1 1 μM,prevented
